Data reported in US12514938B2, “Fibroblast activation protein targeting peptides” (PERSPECTIVE THERAPEUTICS, INC., priority 2023, dated 2026).
*1 amine or outer side, *2 acyl side, *3 side chain or, on linkers, in order; H or OH if unused. Where a SMILES comes first, the peptide text is derived from it. Bridges are numbered along the chain shown (N, C = ends). [ ]: non-standard residue; d: D form. The star is where a group is joined. X1 = NC(=O)CN1CCN(CC(=O)O)CCN(CC(=O)*)CCN(CC(=O)O)CC1; 1Nal = N[C@@H](Cc1cccc2ccccc12)C(=O)O; 2Nal = N[C@@H](Cc1ccc2ccccc2c1)C(=O)O; mXylylene = c1cc(C[*:1])cc(C[*:2])c1; oXylylene = c1ccc(C[*:2])c(C[*:1])c1; PEG2 = NCCOCCOCCC(=O)O; PEG1 = NCCOCCC(=O)O; Ahx = NCCCCCC(=O)O

Target: T1, Human Fibroblast Activation Protein (FAP) (Homo sapiens, UniProt Q12884)
T1 sequence (Q12884 1-760): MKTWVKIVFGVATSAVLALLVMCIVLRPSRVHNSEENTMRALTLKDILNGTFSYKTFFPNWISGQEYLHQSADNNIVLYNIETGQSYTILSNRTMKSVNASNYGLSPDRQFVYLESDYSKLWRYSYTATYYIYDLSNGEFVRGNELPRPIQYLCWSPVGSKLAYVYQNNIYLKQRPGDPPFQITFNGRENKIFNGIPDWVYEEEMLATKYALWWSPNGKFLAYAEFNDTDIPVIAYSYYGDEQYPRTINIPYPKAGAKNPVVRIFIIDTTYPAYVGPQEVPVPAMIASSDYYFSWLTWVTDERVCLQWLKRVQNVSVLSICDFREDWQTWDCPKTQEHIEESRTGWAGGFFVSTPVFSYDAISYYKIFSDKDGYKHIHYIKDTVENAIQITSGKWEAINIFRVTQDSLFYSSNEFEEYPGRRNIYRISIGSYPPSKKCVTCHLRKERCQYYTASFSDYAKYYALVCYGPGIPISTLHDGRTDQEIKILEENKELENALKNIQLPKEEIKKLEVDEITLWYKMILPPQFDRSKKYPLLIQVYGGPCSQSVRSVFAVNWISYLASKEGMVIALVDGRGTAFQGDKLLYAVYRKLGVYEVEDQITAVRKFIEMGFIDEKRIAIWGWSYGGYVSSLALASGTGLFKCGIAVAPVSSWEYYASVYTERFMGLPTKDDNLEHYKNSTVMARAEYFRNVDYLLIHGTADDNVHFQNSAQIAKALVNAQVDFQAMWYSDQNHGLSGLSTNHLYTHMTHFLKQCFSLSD
Test: Enzyme inhibition assay against human FAP (substrate Z-GP-AMC), Example 1
Type: biochemical
Settings: human FAP 5 ng/well, 50 μM Z-GP-AMC; Ki from IC50 by Cheng-Prusoff
Method: Binding Affinity Against Human Fibroblast Activation Protein (FAP)
An enzyme inhibition assay was performed to determine IC50 values and then the Cheng-Prusoff equation used to calculate the Ki given a known Km of the substrate Z-GP-AMC for FAP. To perform the assay, FAP (5 ng/well) and the test peptide at varying concentrations (i.e. 10^−6 to 10^−12) were incubated in a black 96-well plate for 10 minutes at RT on a shaker plate. Then, the substrate Z-GP-AMC was added to give a final concentration of 50 μM. The total reaction volume per well was 100 μL The reaction was allowed to incubate at RT on a shaker plate for 1 hour protected from light, and then fluorescence read with a BioTek Synergy LX plate reader at an ex/em (360/40 and 460/40). Experiments were performed in at least duplicate, and controls of buffer only, buffer and FAP enzyme, and buffer with substrate and FAP enzyme only were included for comparison. The buffer used for the assay was 50 mM Tris-HCl, 1M NaCl, and 1 mg/mL BSA, pH=7.5. Data was plotted in GraphPad Prism and non-linear regression used to calculate IC50 values. The compounds tested and Ki values of each were as follows: […]

Row | Ki [nM] | Molecule
1 | 0.35 | C[C@@H](O)[C@@H]1NC(=O)[C@@H](NC(=O)[C@H](CO)NC(=O)CCOCCOCCNC(=O)CN2CCN(CC(=O)O)CCN(CC(N)=O)CCN(CC(=O)O)CC2)CSCc2cccc(c2)CSC[C@@H](C(N)=O)NC(=O)[C@H](Cc2c[nH]c3ccccc23)NC(=O)[C@H](Cc2c[nH]c3ccccc23)NC(=O)[C@H](CCC(N)=O)NC(=O)[C@H](CCC(=O)O)NC(=O)[C@H](Cc2c[nH]c3ccccc23)NC(=O)[C@@H]2CCCN2C1=O [VMT-FAP-2-48, PSC-PEG2-S-[C(mXdB)TPWEQWWC]-NH2] ({X1-PEG2}-SCTPWEQWWC-NH2; linker 2-10 via mXylylene)
2 | 5.01 | CC[C@H](C)[C@@H]1NC(=O)[C@H](CCC(=O)O)NC(=O)[C@H](Cc2ccccc2)NC(=O)[C@@H]2CCCN2C(=O)[C@H]([C@@H](C)O)NC(=O)[C@@H](NC(=O)[C@H](CO)NC(C)=O)CSCc2ccccc2CSC[C@@H](C(N)=O)NC(=O)[C@H](Cc2c[nH]c3ccccc23)NC(=O)[C@H](Cc2c[nH]c3ccccc23)NC1=O [VMT-FAP-1-94, Ac-S[C(oXdB)TPFEIWWC]-NH2] (Ac-SCTPFEIWWC-NH2; linker 2-10 via oXylylene)
3 | 1.83 | CC(=O)N[C@@H](CO)C(=O)N[C@H]1CSCc2ccccc2CSC[C@@H](C(N)=O)NC(=O)[C@H](Cc2c[nH]c3ccccc23)NC(=O)[C@H](Cc2c[nH]c3ccccc23)NC(=O)[C@H](CC(=O)O)NC(=O)[C@H](CCC(=O)O)NC(=O)[C@H](Cc2ccccc2)NC(=O)[C@@H]2CCCN2C(=O)[C@H]([C@@H](C)O)NC1=O [VMT-FAP-1-104, Ac-S[C(oXdB)TPFEDWWC]-NH2] (Ac-SCTPFEDWWC-NH2; linker 2-10 via oXylylene)
4 | 0.08 | C[C@@H](O)[C@@H]1NC(=O)[C@@H](NC(=O)CCOCCNC(=O)CN2CCN(CC(=O)O)CCN(CC(N)=O)CCN(CC(=O)O)CC2)CSCc2ccccc2CSC[C@@H](C(N)=O)NC(=O)[C@H](Cc2c[nH]c3ccccc23)NC(=O)[C@H](Cc2c[nH]c3ccccc23)NC(=O)[C@H](CCC(N)=O)NC(=O)[C@H](CCC(=O)O)NC(=O)[C@H](Cc2c[nH]c3ccccc23)NC(=O)[C@@H]2CCCN2C1=O [VMT-FAP-2-67, PSC-PEG1-[C(oXdB)TPWEQWWC]-NH2] ({X1-PEG1}-CTPWEQWWC-NH2; linker 1-9 via oXylylene)
5 | 0.29 | C[C@@H]1NC(=O)[C@H](CCC(=O)O)NC(=O)[C@H](Cc2ccccc2)NC(=O)[C@@H]2CCCN2C(=O)[C@H]([C@@H](C)O)NC(=O)[C@@H](NC(=O)[C@@H](N)CO)CSCc2ccccc2CSC[C@@H](C(N)=O)NC(=O)[C@H](Cc2c[nH]c3ccccc23)NC(=O)[C@H](Cc2c[nH]c3ccccc23)NC1=O [VMT-FAP-2-23, S[C(oXdB)TPFEAWWC]-NH2] (H-SCTPFEAWWC-NH2; linker 2-10 via oXylylene; N-terminus assumed)
6 | 10.7 | CC(=O)N[C@@H](CC(N)=O)C(=O)N[C@H]1CSCc2ccccc2CSC[C@@H](C(N)=O)NC(=O)[C@H](Cc2c[nH]c3ccccc23)NC(=O)[C@H](Cc2c[nH]c3ccccc23)NC(=O)[C@H](CCC(N)=O)NC(=O)[C@H](CCC(=O)O)NC(=O)[C@H](Cc2c[nH]cn2)NC(=O)[C@@H]2CCCN2C(=O)[C@H]([C@@H](C)O)NC1=O [VMT-FAP-1-64, Ac-N[C(oXdB)TPHEQWWC]-NH2] (Ac-NCTPHEQWWC-NH2; linker 2-10 via oXylylene)
7 | 1.26 | C[C@@H](O)[C@@H]1NC(=O)[C@@H](NC(=O)CCCCCNC(=O)CN2CCN(CC(=O)O)CCN(CC(N)=O)CCN(CC(=O)O)CC2)CSCc2ccccc2CSC[C@@H](C(=O)O)NC(=O)[C@H](Cc2c[nH]c3ccccc23)NC(=O)[C@H](Cc2c[nH]c3ccccc23)NC(=O)[C@H](CCC(N)=O)NC(=O)[C@H](CCC(=O)O)NC(=O)[C@H](Cc2c[nH]c3ccccc23)NC(=O)[C@@H]2CCCN2C1=O [VMT-FAP-2-75, PSC-6AHA-[C(oXdB)TPWEQWWC]-COOH] ({X1-Ahx}-CTPWEQWWC-OH; linker 1-9 via oXylylene)
8 | 13.6 | CC(=O)N[C@@H](CO)C(=O)N[C@H]1CSCc2ccccc2CSC[C@@H](C(N)=O)NC(=O)[C@H](Cc2c[nH]c3ccccc23)NC(=O)[C@H](Cc2ccc(O)cc2)NC(=O)[C@H](CCC(N)=O)NC(=O)[C@H](CCC(=O)O)NC(=O)[C@H](Cc2ccccc2)NC(=O)[C@@H]2CCCN2C(=O)[C@H]([C@@H](C)O)NC1=O [VMT-FAP-2-29, Ac-S[C(oXdB)TPFEQYWC]-NH2] (Ac-SCTPFEQYWC-NH2; linker 2-10 via oXylylene)
9 | 0.67 | C[C@@H](O)[C@@H]1NC(=O)[C@@H](NC(=O)[C@H](CO)NC(=O)[C@H](Cc2ccccc2)NC(=O)CCOCCOCCNC(=O)CN2CCN(CC(=O)O)CCN(CC(N)=O)CCN(CC(=O)O)CC2)CSCc2ccccc2CSC[C@@H](C(N)=O)NC(=O)[C@H](Cc2c[nH]c3ccccc23)NC(=O)[C@H](Cc2c[nH]c3ccccc23)NC(=O)[C@H](CCC(N)=O)NC(=O)[C@H](CCC(=O)O)NC(=O)[C@H](Cc2ccccc2)NC(=O)[C@@H]2CCCN2C1=O [VMT-FAP-2-39, PSC-PEG2-F-S-[C(oXdB)TPFEQWWC]-NH2] ({X1-PEG2}-FSCTPFEQWWC-NH2; linker 3-11 via oXylylene)
10 | 0.34 | C[C@@H](O)[C@@H]1NC(=O)[C@@H](NC(=O)[C@H](CO)NC(=O)CCOCCOCCNC(=O)CN2CCN(CC(=O)O)CCN(CC(N)=O)CCN(CC(=O)O)CC2)CSCc2ccccc2CSC[C@@H](C(N)=O)NC(=O)[C@H](Cc2c[nH]c3ccccc23)NC(=O)[C@H](Cc2c[nH]c3ccccc23)NC(=O)[C@H](CCC(N)=O)NC(=O)[C@H](CCC(=O)O)NC(=O)[C@H](Cc2ccc3ccccc3c2)NC(=O)[C@@H]2CCCN2C1=O [VMT-FAP-2-53, PSC-PEG2-[SC(oXdB)TP2-NalEQWWC]-NH2] ({X1-PEG2}-SCTP[2Nal]EQWWC-NH2; linker 2-10 via oXylylene)
11 | 0.79 | PSC-Bn-NCS-PEG1-[C(oXdB)TPWEQWWC]-NH2 [VMT-FAP-2-72]
12 | 2.29 | CC(=O)N[C@@H](CO)C(=O)N[C@H]1CSCc2ccccc2CSC[C@@H](C(N)=O)NC(=O)[C@H](Cc2ccc(O)cc2)NC(=O)[C@H](Cc2c[nH]c3ccccc23)NC(=O)[C@H](CCC(N)=O)NC(=O)[C@H](CCC(=O)O)NC(=O)[C@H](Cc2ccccc2)NC(=O)[C@@H]2CCCN2C(=O)[C@H]([C@@H](C)O)NC1=O [VMT-FAP-2-28, Ac-S[C(oXdB)TPFEQWYC]-NH2] (Ac-SCTPFEQWYC-NH2; linker 2-10 via oXylylene)
13 | 0.48 | C[C@@H](O)[C@@H]1NC(=O)[C@@H](NC(=O)[C@H](CO)NC(=O)CCOCCOCCNC(=O)CN2CCN(CC(=O)O)CCN(CC(N)=O)CCN(CC(=O)O)CC2)CSCc2ccccc2CSC[C@@H](C(N)=O)NC(=O)[C@H](Cc2c[nH]c3ccccc23)NC(=O)[C@H](Cc2c[nH]c3ccccc23)NC(=O)[C@H](CCC(N)=O)NC(=O)[C@H](CCC(=O)O)NC(=O)[C@H](Cc2cccc3ccccc23)NC(=O)[C@@H]2CCCN2C1=O [VMT-FAP-2-60, PSC-PEG2-S-[C(oXdB)TP1-NalEQWWC]-NH2] ({X1-PEG2}-SCTP[1Nal]EQWWC-NH2; linker 2-10 via oXylylene)
14 | 1.27 | CC(=O)N[C@H]1CSCc2ccccc2CSC[C@@H](C(N)=O)NC(=O)[C@H](Cc2c[nH]c3ccccc23)NC(=O)[C@H](Cc2c[nH]c3ccccc23)NC(=O)[C@H](CCC(N)=O)NC(=O)[C@H](CCC(=O)O)NC(=O)[C@H](Cc2ccccc2)NC(=O)[C@@H]2CCCN2C(=O)[C@H]([C@@H](C)O)NC1=O [VMT-FAP-2-40, Ac-[C(oXdB)TPFEQWWC]-NH2] (Ac-CTPFEQWWC-NH2; linker 1-9 via oXylylene)
